Patent US8940310B2, “Methods of treatment using TLR7 and/or TLR9 inhibitors” (Dynavax Technologies Corporation, priority 2010, dated 2015)
[I] = hypoxanthine (inosine)

Experiments:
[1] = Solubility of spacer measured as dialcohol precursor; type: physicochemical; details: dodecyl spacer measured as dialcohol precursor
PDC = details: 129 mice, conventional and plasmacytoid DC, spleen and blood
human B-cells = assay: Human B-cells cultured in the presence of IRPs, IL-6
[2] = High dosages of IRPs in mice (weight, histology); type: in vivo, BALB/c mice; details: 100 mg/kg SC days 1, 4, 7, 10
Experimental: To test the activity of IRPs at high dosages in mice, IRPs or a control (saline) were subcutaneously administered to BALB/c mice at a dosage of 4 mg/kg, 20 mg/kg, 50 mg/kg, or 100 mg/kg on days 1, 4, 7, and 10 (n=5 per group). Mice were weighed prior to administration and on days 2, 4, 7, 9, and 11. Serum cytokines were assayed at two hours post the first and third injections and 24 hours post the fourth injection. Organs were harvested at the end of the study, and organ weights and tissues levels of the oligonucleotides were determined. In addition, histological evaluation of the liver, kidney, and heart was performed.
Mice were weighed prior to administration and on days 1, 3, 4, 6, 7, and 9. Organs were harvested at the end of the study, and organ weights and tissues levels of the oligonucleotides were determined. In addition, histological evaluation of the liver, kidney, and heart was performed.

[3] = High dosages of IRPs in rats (weight, deaths, histology); type: in vivo, Sprague Dawley rats; details: rat; for Heart: Cell Vacuolation, number of animals / Heart: Hemorrhage, number of animals / Heart: Mononuclear Cell Infiltration, number of animals / Heart: Necrosis, number of animals / Heart: No significant changes, number of animals / Liver: Liver changes, number of animals / Liver: Mixed cell infiltration, number of animals / Liver: Necrosis, number of animals / Liver: No significant changes, number of animals / Liver: Vacuolation, number of animals / Right Kidney: Hydronephrosis, number of animals / Right Kidney: Mineralization, number of animals / Right Kidney: Necrosis, number of animals / Right Kidney: No significant changes, number of animals / Right Kidney: Tubular basophilia, number of animals / Right Kidney: Tubular changes, number of animals: 6 animals
Experimental: To test the activity of IRPs at high dosages in rats, IRPs (SEQ ID NO:42 and SEQ ID NO:109) or a control (PBS) were subcutaneously administered to 8-9 weeks old, […], 3, 6, and 9 (n=6 per group). Rats were weighed prior to administration and on days 1, 3, 4, 6, 7, and 9. Organs were harvested at the end of the study, and organ weights and tissues levels of the oligonucleotides were determined. In addition, histolocial evaluation of the liver, kidney, and heart was performed.
Rats were weighed prior to administration and on days 1, 3, 6, 7, and 9. Organs were harvested at the end of the study, and organ weights and tissues levels of the oligonucleotides were determined. In addition, histological evaluation of the liver, kidney, and heart was performed.

[4] = Monomer and tetramer formation of IRPs, size-exclusion HPLC; type: physicochemical; details: 100 mg/mL in PBS and 0.5M KCl, room temperature
Experimental: Solutions were prepared of the by mixing 100 mg/mL of the IRP sequences in PBS and 0.5M KCl and storing at room temperature for three to five weeks. The solutions were subsequently analyzed by size-exclusion HPLC.

[5] = 10 mg/kg, 0 = no change to 4 = severe
[6] = 90 mg/kg, 0 = no change to 4 = severe

OCCCCCCCCCCCCO [1,12-dihydroxydodecane]
solubility [1]: < 5000 µg/mL

5′-TCGTCGAACGTTCGAGATGAT-3′ [SEQ ID NO:158, reference compound]
protection from GC-induced cell death (PDC): afforded significant protection from GC-induced cell death

5′-UGC TGC TCC TTG AGI GGT TGT TTG T-3′ (DNA UGCTGCTCCTTGAGNGGTTGTTTGT; DNA, [I] at 15, backbone and methylation of C not given here) [SEQ ID NO:109]
Normalized IL-6 Response (Percentage of Positive Control) (human B-cells; Experiment # 1, Max Conc 4.0 uM): 58%
Normalized IL-6 Response (Percentage of Positive Control) (human B-cells; Experiment # 2, Max Conc 4.0 uM): 52%
Normalized IL-6 Response (Percentage of Positive Control) (human B-cells; Experiment # 3, Max Conc 4.0 uM): 39%
Normalized IL-6 Response (Percentage of Positive Control) (human B-cells; Experiment # 4, Max Conc 4.0 uM): 45%
Normalized IL-6 Response (Percentage of Positive Control) (human B-cells; Experiment # 5, Max Conc 4.0 uM): 53%
Normalized IL-6 Response (Percentage of Positive Control) (human B-cells; Experiment # 6, Max Conc 4.0 uM): 58%
Normalized IL-6 Response (Percentage of Positive Control) (human B-cells; Experiment # 7, Max Conc 4.0 uM): 45%
Normalized IL-6 Response (Percentage of Positive Control) (human B-cells; Experiment # 8, Max Conc 2.0 uM): 42%
Normalized IL-6 Response (Percentage of Positive Control) (human B-cells; Experiment # 9, Max Conc 2.0 uM): 64%
Normalized IL-6 Response (Percentage of Positive Control) (human B-cells; Experiment # 10, Max Conc 2.0 uM): 63%
Normalized IL-6 Response (Percentage of Positive Control) (human B-cells; Experiment # 11, Max Conc 2.0 uM): 54%
B-cell response as evidenced by IL-6 produced (human B-cells; human B-cells with IRP alone, 48 hours, FIGS. 1A-B): induced a B-cell response
weight loss as % gain versus pre-dose [2]: provoked weight loss
Kidney: tubular basophilia ([3]; 10 mg/kg): occurred
organ weight of the liver, heart, kidney, or spleen ([3]; 10 mg/kg or 100 mg/kg SC days 0, 3, 6, 9): no significant difference
Heart: Cell Vacuolation, number of animals ([3]; 10 mg/kg): 0
Heart: Hemorrhage, number of animals ([3]; 10 mg/kg): 0
Heart: Mononuclear Cell Infiltration, number of animals ([3]; 10 mg/kg): 0
Heart: Necrosis, number of animals ([3]; 10 mg/kg): 0
Heart: No significant changes, number of animals ([3]; 10 mg/kg): 6
Liver: Liver changes, number of animals ([3]; 10 mg/kg): 6
Liver: Mixed cell infiltration, number of animals ([3]; 10 mg/kg): 6
Liver: Necrosis, number of animals ([3]; 10 mg/kg): 0
Liver: No significant changes, number of animals ([3]; 10 mg/kg): 0
Liver: Vacuolation, number of animals ([3]; 10 mg/kg): 0
Right Kidney: Hydronephrosis, number of animals ([3]; 10 mg/kg): 0
Right Kidney: Mineralization, number of animals ([3]; 10 mg/kg): 0
Right Kidney: Necrosis, number of animals ([3]; 10 mg/kg): 0
Right Kidney: No significant changes, number of animals ([3]; 10 mg/kg): 0
Right Kidney: Tubular basophilia, number of animals ([3]; 10 mg/kg): 6
Right Kidney: Tubular changes, number of animals ([3]; 10 mg/kg): 6
Liver: Liver changes, mean severity score [3, 5]: 1.0
Liver: Mixed cell infiltration, mean severity score [3, 5]: 2.5
Right Kidney: Tubular basophilia, mean severity score [3, 5]: 1.5
Right Kidney: Tubular changes, mean severity score [3, 5]: 1.0
Heart: cellular vacuolation ([3]; 90 mg/kg): present in some animals
Heart: hemorrhage and necrosis ([3]; 90 mg/kg): noted
Kidney: tubular basophilia ([3]; 90 mg/kg): occurred
Liver: hepatocellular cytoplasmic vacuolation ([3]; 90 mg/kg): hepatocellular cytoplasmic vacuolation
Liver: hepatocellular necrosis ([3]; 90 mg/kg): hepatocellular necrosis
Renal necrosis ([3]; 90 mg/kg): noted
deaths two days after the first dose ([3]; 90 mg/kg SC, n=6): one rat died
Heart: Cell Vacuolation, number of animals ([3]; 90 mg/kg): 5
Heart: Hemorrhage, number of animals ([3]; 90 mg/kg): 1
Heart: Mononuclear Cell Infiltration, number of animals ([3]; 90 mg/kg): 0
Heart: Necrosis, number of animals ([3]; 90 mg/kg): 1
Heart: No significant changes, number of animals ([3]; 90 mg/kg): 0
Liver: Liver changes, number of animals ([3]; 90 mg/kg): 6
Liver: Mixed cell infiltration, number of animals ([3]; 90 mg/kg): 6
Liver: Necrosis, number of animals ([3]; 90 mg/kg): 6
Liver: No significant changes, number of animals ([3]; 90 mg/kg): 0
Liver: Vacuolation, number of animals ([3]; 90 mg/kg): 6
Right Kidney: Hydronephrosis, number of animals ([3]; 90 mg/kg): 0
Right Kidney: Mineralization, number of animals ([3]; 90 mg/kg): 1
Right Kidney: Necrosis, number of animals ([3]; 90 mg/kg): 1
Right Kidney: No significant changes, number of animals ([3]; 90 mg/kg): 0
Right Kidney: Tubular basophilia, number of animals ([3]; 90 mg/kg): 5
Right Kidney: Tubular changes, number of animals ([3]; 90 mg/kg): 5
Heart: Cell Vacuolation, mean severity score [3, 6]: 1.8
Heart: Hemorrhage, mean severity score [3, 6]: 3.0
Heart: Necrosis, mean severity score [3, 6]: 1.0
Liver: Liver changes, mean severity score [3, 6]: 3.5
Liver: Mixed cell infiltration, mean severity score [3, 6]: 2.0
Liver: Necrosis, mean severity score [3, 6]: 2.0
Liver: Vacuolation, mean severity score [3, 6]: 2.0
Right Kidney: Mineralization, mean severity score [3, 6]: 1.0
Right Kidney: Necrosis, mean severity score [3, 6]: 4.0
Right Kidney: Tubular basophilia, mean severity score [3, 6]: 3.0
Right Kidney: Tubular changes, mean severity score [3, 6]: 2.0
total weight and % weight gain/loss ([3]; 100 mg/kg): decrease in total weight and % weight gain/loss
fraction in monomer form ([4]; five weeks): 100%
fraction in monomer form ([4]; three weeks): 100%
